Reference: patent US11419806B2, “Prebiotic oral care methods using a saccharide” (Colgate-Palmolive Company, priority 2013, dated 2022)

Legend:
Test in all cases: Twenty-four hour biofilm growth (crystal violet)
Assay type in all cases: cell-based
A. actinomycetemcomitans = tested on: A. actinomycetemcomitans
Description: (§1) The increase in biofilm formation of the tested bacteria in response to selected saccharides (D-turanose, D-lactitol, myo-inositol, and N-acetyl-D-mannosamine) was investigated by setting up biofilm growth assays in a nutritionally rich medium (brain heart infusion broth (BHI), Oxoid), over 24 hours. Late exponential growth phase liquid cultures were prepared by transferring the respective bacterium from blood agar plates to BHI and overnight incubation at 37° C. in an anaerobic atmosphere for A. viscosus, V. parvula, P. gingivalis, P. intermedia, T. forsythia, A. naeslundii, and C. sputigena, and in a 5% CO2 environment for S. salivarius, S. sanguinis, S. mitis, A. actinomycetemcomitans, S. mutans, and S. gordonii. Overnight cultures were transferred to BHI and adjusted to a concentration of 1×10^7 CFU/ml by measuring the optical density at 600 nm (OD600) (BioRad SmartSpec 3000). For each strain, 200 μl of the bacterial suspension was added to a 96-well plate containing 20 μl of the respective saccharides. Final concentrations of the saccharides were set to 5, 10, 20 and 25 μmol/ml. […] Additionally, for each bacterium tested, a background control, to correct for background staining, was added. This background control contained the bacterium tested and 0.03 weight % chlorhexidine, as an antiseptic. Plates were incubated as previously described. After 24 hrs the supernatant was removed from the wells of the plates. The wells were washed twice with 1×100 μL PBS (phosphate buffered saline), fixed for 20 minutes with 96% vol. ethanol (96% vol. solution in water) and the biofilm retained at the bottom of the wells was stained with 1 weight % crystal violet (1 weight % solution in water). The bound dye was dissolved with 5% vol. acetic acid (5% vol. solution in water). Quantification of the stained biofilm was performed by measuring the absorbance at 630 nm using a Multiskan Ascent microplate reader (Thermo Scientific).
(§2) The experiment was carried out on three different days (thus providing 3 biological replicas) and each day the experiment was carried out in quadruple (thus providing 4 technical replicas) for each combination of bacterium with saccharide and for each control. For each day and for each combination, the average (mean) of the values obtained (as detailed above) for the four technical replicas was calculated to provide a single value for each combination on each day. The values shown in Tables 7a, 7b, 8a, 8b, below, are the average (mean) of the three single values obtained for each combination of bacterium with saccharide.

A. naeslundii = tested on: A. naeslundii
Description: as §1, §2

A. viscosus = tested on: A. viscosus
Description: as §1, §2

C. sputigena = tested on: C. sputigena
Description: as §1, §2

P. gingivalis = tested on: P. gingivalis
Description: as §1, §2

P. intermedia = tested on: P. intermedia
Description: as §1, §2

S. gordonii = tested on: S. gordonii
Description: as §1, §2

S. mitis = tested on: S. mitis
Description: as §1, §2

S. mutans = conditions: for biofilm growth: OD 630 nm at 24 hrs divided by OD of control (control = 1): S mutans
Description: as §1, §2

S. salivarius = tested on: S. salivarius
Description: as §1, §2

S. sanguinis = tested on: S. sanguinis
Description: as §1, §2

T. forsythia = tested on: T. forsythia
Description: as §1, §2

V. parvula = tested on: V. parvula
Description: as §1, §2

Compound: OC[C@@H](O)[C@@H](O[C@H]1O[C@H](CO)[C@H](O)[C@H](O)[C@H]1O)[C@H](O)[C@@H](O)CO [D-Lactitol, 4-O-α-D-galactopyranosyl-D-glucitol]
- biofilm growth: OD 630 nm at 24 hrs divided by OD of control (control = 1) (A. actinomycetemcomitans; 5 μmol/ml): 0.6593
- biofilm growth: OD 630 nm at 24 hrs divided by OD of control (control = 1) (A. actinomycetemcomitans; 10 μmol/ml): 0.6496
- biofilm growth: OD 630 nm at 24 hrs divided by OD of control (control = 1) (A. actinomycetemcomitans; 20 μmol/ml): 0.8502
- biofilm growth: OD 630 nm at 24 hrs divided by OD of control (control = 1) (A. actinomycetemcomitans; 25 μmol/ml): 0.8372
- biofilm growth: OD 630 nm at 24 hrs divided by OD of control (control = 1) (A. naeslundii; 5 μmol/ml): 1.0191
- biofilm growth: OD 630 nm at 24 hrs divided by OD of control (control = 1) (A. naeslundii; 10 μmol/ml): 1.0015
- biofilm growth: OD 630 nm at 24 hrs divided by OD of control (control = 1) (A. naeslundii; 20 μmol/ml): 1.0337
- biofilm growth: OD 630 nm at 24 hrs divided by OD of control (control = 1) (A. naeslundii; 25 μmol/ml): 1.0428
- biofilm growth: OD 630 nm at 24 hrs divided by OD of control (control = 1) (A. viscosus; 5 μmol/ml): 0.6832
- biofilm growth: OD 630 nm at 24 hrs divided by OD of control (control = 1) (A. viscosus; 10 μmol/ml): 0.7502
- biofilm growth: OD 630 nm at 24 hrs divided by OD of control (control = 1) (A. viscosus; 20 μmol/ml): 0.9528
- biofilm growth: OD 630 nm at 24 hrs divided by OD of control (control = 1) (A. viscosus; 25 μmol/ml): 0.9153
- biofilm growth: OD 630 nm at 24 hrs divided by OD of control (control = 1) (C. sputigena; 5 μmol/ml): 0.5867
- biofilm growth: OD 630 nm at 24 hrs divided by OD of control (control = 1) (C. sputigena; 10 μmol/ml): 0.5658
- biofilm growth: OD 630 nm at 24 hrs divided by OD of control (control = 1) (C. sputigena; 20 μmol/ml): 0.6841
- biofilm growth: OD 630 nm at 24 hrs divided by OD of control (control = 1) (C. sputigena; 25 μmol/ml): 0.7591
- biofilm growth: OD 630 nm at 24 hrs divided by OD of control (control = 1) (P. gingivalis; 5 μmol/ml): 0.9536
- biofilm growth: OD 630 nm at 24 hrs divided by OD of control (control = 1) (P. gingivalis; 10 μmol/ml): 0.9616
- biofilm growth: OD 630 nm at 24 hrs divided by OD of control (control = 1) (P. gingivalis; 20 μmol/ml): 0.8995
- biofilm growth: OD 630 nm at 24 hrs divided by OD of control (control = 1) (P. gingivalis; 25 μmol/ml): 0.9701
- biofilm growth: OD 630 nm at 24 hrs divided by OD of control (control = 1) (P. intermedia; 5 μmol/ml): 1.0504
- biofilm growth: OD 630 nm at 24 hrs divided by OD of control (control = 1) (P. intermedia; 10 μmol/ml): 1.0396
- biofilm growth: OD 630 nm at 24 hrs divided by OD of control (control = 1) (P. intermedia; 20 μmol/ml): 1.1500
- biofilm growth: OD 630 nm at 24 hrs divided by OD of control (control = 1) (P. intermedia; 25 μmol/ml): 1.1288
- biofilm growth: OD 630 nm at 24 hrs divided by OD of control (control = 1) (S. gordonii; 5 μmol/ml): 0.6036
- biofilm growth: OD 630 nm at 24 hrs divided by OD of control (control = 1) (S. gordonii; 10 μmol/ml): 0.5959
- biofilm growth: OD 630 nm at 24 hrs divided by OD of control (control = 1) (S. gordonii; 20 μmol/ml): 0.4885
- biofilm growth: OD 630 nm at 24 hrs divided by OD of control (control = 1) (S. gordonii; 25 μmol/ml): 0.5149
- biofilm growth: OD 630 nm at 24 hrs divided by OD of control (control = 1) (S. mitis; 5 μmol/ml): 0.6696
- biofilm growth: OD 630 nm at 24 hrs divided by OD of control (control = 1) (S. mitis; 10 μmol/ml): 0.5919
- biofilm growth: OD 630 nm at 24 hrs divided by OD of control (control = 1) (S. mitis; 20 μmol/ml): 0.8007
- biofilm growth: OD 630 nm at 24 hrs divided by OD of control (control = 1) (S. mitis; 25 μmol/ml): 0.8340
- stimulation of biofilm formation of S. mutans (S. mutans; Example 3): does not stimulate
- biofilm growth: OD 630 nm at 24 hrs divided by OD of control (control = 1) (S. mutans; 5 μmol/ml): 0.9767
- biofilm growth: OD 630 nm at 24 hrs divided by OD of control (control = 1) (S. mutans; 10 μmol/ml): 0.9333
- biofilm growth: OD 630 nm at 24 hrs divided by OD of control (control = 1) (S. mutans; 20 μmol/ml): 1.1068
- biofilm growth: OD 630 nm at 24 hrs divided by OD of control (control = 1) (S. mutans; 25 μmol/ml): 1.0108
- biofilm growth: OD 630 nm at 24 hrs divided by OD of control (control = 1) (S. salivarius; 5 μmol/ml): 2.1471
- biofilm growth: OD 630 nm at 24 hrs divided by OD of control (control = 1) (S. salivarius; 10 μmol/ml): 4.8849
- biofilm growth: OD 630 nm at 24 hrs divided by OD of control (control = 1) (S. salivarius; 20 μmol/ml): 5.5726
- biofilm growth: OD 630 nm at 24 hrs divided by OD of control (control = 1) (S. salivarius; 25 μmol/ml): 6.4158
- biofilm growth: OD 630 nm at 24 hrs divided by OD of control (control = 1) (S. sanguinis; 5 μmol/ml): 1.2160
- biofilm growth: OD 630 nm at 24 hrs divided by OD of control (control = 1) (S. sanguinis; 10 μmol/ml): 1.5548
- biofilm growth: OD 630 nm at 24 hrs divided by OD of control (control = 1) (S. sanguinis; 20 μmol/ml): 1.8523
- biofilm growth: OD 630 nm at 24 hrs divided by OD of control (control = 1) (S. sanguinis; 25 μmol/ml): 2.2341
- biofilm growth: OD 630 nm at 24 hrs divided by OD of control (control = 1) (T. forsythia; 5 μmol/ml): 0.5843
- biofilm growth: OD 630 nm at 24 hrs divided by OD of control (control = 1) (T. forsythia; 10 μmol/ml): 0.5942
- biofilm growth: OD 630 nm at 24 hrs divided by OD of control (control = 1) (T. forsythia; 20 μmol/ml): 0.7398
- biofilm growth: OD 630 nm at 24 hrs divided by OD of control (control = 1) (T. forsythia; 25 μmol/ml): 0.6158
- biofilm growth: OD 630 nm at 24 hrs divided by OD of control (control = 1) (V. parvula; 5 μmol/ml): 1.0022
- biofilm growth: OD 630 nm at 24 hrs divided by OD of control (control = 1) (V. parvula; 10 μmol/ml): 1.0212
- biofilm growth: OD 630 nm at 24 hrs divided by OD of control (control = 1) (V. parvula; 20 μmol/ml): 0.9658
- biofilm growth: OD 630 nm at 24 hrs divided by OD of control (control = 1) (V. parvula; 25 μmol/ml): 0.9859
